Counter-ions that a name gives are not always drawn. Square brackets hold non-standard residues; d marks the D form. Peptide text beside a SMILES is read from it. * marks the point of attachment. Boc = CC(C)(C)OC(=O)*; OBn = c1ccc(CO*)cc1
Experiments:
[1] = system: Schistosoma mansoni adult worms; assay: Viability of Schistosoma mansoni adult worms in vitro; format: cell-based, Schistosoma mansoni NMRI strain; conditions: 37 °C; for time to kill all parasites / time to reach the death of half of the population of worms: Table S1, dose at 100 μg/ml, unit not given in Table S1 (h in Table 2); for Activity/toxicity towards schistosomes (in words): adult worms; for Activity/toxicity towards schistosomes (in words) / Time to Kill 50% of Parasites / Time to Kill 100% of Parasites: 100 μg/mL; for Time to Kill 50% of Parasites / Time to Kill 100% of Parasites: adult worms in RPMI 1640/Tween 80/DMSO, observed up to 72 h, duplicate wells
Method: Experiments on the viability of Schistosoma mansoni adult worms. In vitro tests were performed on Schistosoma mansoni NMRI strains. This parasite is lab maintained on Biomphalaria glabrata (BRE strain) as intermediate mollusc host and Golden Hamster (Janvier Labs, Le Genest-Saint-Isle, France) as definitive vertebrate host. Methods, for molluscs’ and hamsters’ infection and for parasite recovery, were previously described. Adult worms were recovered by hepatic perfusion technique between 42 and 47 days post hamster exposition to parasite larvae. Worms were carefully collected and disposed in 12-well Falcon® plate containing 2 mL of RPMI 1640 (supplemented with L-glutamine and Hepes 25 mM). The plates containing a minimum of 15 worms by well were then placed in an incubator chamber at 37 °C and 5% CO2. The worms sex ratio was almost balanced in each well. The drug was first dissolved in DMSO (Sigma-Aldrich) to give a 100 mg/mL mother solution. Then the stock solution was complemented with Tween 80 and RPMI to obtain the following final ratio dilution: RPMI 1640/Tween 80/DMSO and 1000/0.95/3.8, v/v/v.
All molecules were tested at a final concentration of 100 µg/mL and 10 µg/mL. A negative control consisted in adding the same RPMI 1640/Tween 80/DMSO solution, but without any drug and a positive control consisted in adding praziquantel. All molecules and control were performed in duplicates of well. The worm viability was checked after 1, 2, 3, 4, 5, 6, 7, 8, 24, 48, and 72 h after adding the molecule.

[2] = Homolysis kinetics of alkoxyamines by EPR (growth of nitroxide); format: physicochemical; conditions: mixture of diastereoisomers; for Homolysis rate constant kd: 0.1 mM alkoxyamine, O2 as alkyl radical scavenger; for Activation energy Ea: by Equation (2) from kd and T, A = 2.4 10^14 s^−1
Method: Preparation of alkoxyamines and reference samples. All reagents including anhydrous solvents used for the chemical synthesis were purchased from commercially available sources such as Merck, TCI, and Fluorochem, and were used without further purification. All air and/or water-sensitive reactions were carried out under an argon atmosphere with dry solvents using standard syringe-cannula/septa techniques. Routine monitoring of reactions was performed using Merck Silica gel 60 F254, aluminum-supported TLC plates; spots were visualized using UV light and ethanolic acidic para-anisaldehyde solution or ethanolic phosphomolybdic solution, followed by heating. Purifications by means of column chromatography were performed with Silica gel 60 (230–400 mesh). ^1H, ^13C, and ^19F NMR spectra were obtained in CDCl3, MeOD (with residual H2O), D2O, DMSO-d6, or C6D6 solutions on by using Bruker AC400 (400 MHz) and Bruker AC300 (300 MHz) spectrometers. High-resolution mass spectra (HRMS) have been performed using a SYNAPT G2 HDMS (Waters) mass spectrometer equipped with a pneumatically assisted atmospheric pressure ionization (API) source. The sample was ionized in positive electrospray mode under the following conditions: electrospray voltage: 2.8 kV; port voltage: 20 V; Nebulizing gas flow rate (nitrogen): 100 L/h or in negative electrospray mode under the following conditions: electrospray voltage: −2.27 kV; port voltage: −20 V; Nebulizing gas flow rate (nitrogen): 100 L/h. The mass spectra (MS) were obtained with a time-of-flight (TOF) analyzer. The exact mass measurements were carried out in triplicate with external calibration. Homolysis constants were measured by EPR on an EMX Bruker spectrometer from 10^−4 M samples in tertbutyl benzene or in a mixture of H2O-nPrOH (1:1; v:v).
Kinetic experiments. Kinetics of A1–A7 (Scheme 2) for series L and D are performed by monitoring the growth of nitroxide by Electron Paramagnetic Resonance (X-band EMX Bruker machine) in tert-butylbenzene and a water/n-PrOH (for a good solubility of the alkoxyamine) as solvents and using O2 as alkyl radical scavenger to suppress the back reaction (kc in Scheme 2) as already reported. Homolysis rate constants kd are given by Equation (1) ([nitroxide]∞ = [alkoxyamine]0 = 0.1 mM, see Table S1) and the subsequent activation energies Ea given by Equation (2). (1) lnnitroxide∞−nitroxidet/nitroxide∞=−kd·t, (2) Ea=−RTlnkd/A.

[3] = system: Vero cells; format: cell-based; conditions: 48 h
Method: A non-cancer line of Vero cells was used to determine the cytotoxicity of the compound against mammalian cells. They were evaluated at a final DMSO concentration of 0.5%. The culture medium was MEM (Dutscher, Bernolsheim, France) supplemented with 10% fetal bovine serum (Fisher Scientific, Illkirch, France), 1X non-essential amino acids (Fisher Scientific, Illkirch, France), 100 U/mL, 100 µg/mL penicillin/streptomycin (Fisher Scientific, Illkirch, France), and 2 mM L-glutamine (Fisher Scientific, Illkirch, France) at 37 °C in a humidified 5% CO2 atmosphere. Vero cells (100 µL of 10^5 cells/mL per well) were plated in 96-well plates for 24 h then treated with 100 µL of compound dilutions (in duplicate) during 48 h. All molecules were tested from 5 nM to 50 µM. Each well was then examined under the microscope to detect any precipitate formation before the supernatant was removed by flicking the plate. A volume of 100 µL of 0.5 mg/mL in MEM from a stock solution at 5 mg/mL of PBS-dissolved MTT (3-(4,5-dimethylthiazol-2-yl)-2,5-diphenyltetrazolium bromide, Sigma Aldrich/Merck, Darmstadt, Germany) was then added to each well [20].
After incubation for 1 h at 37 °C and 5% CO2 the supernatant was removed and 100 µL of DMSO were added. Plates were gently shaken to dissolve formazan crystals resulting from the MTT reduction by living cells and read at 570 nm with the VICTOR Nivo plate reader (Perkin Elmer, Waltham, MA, USA). CC50 values were determined using GraphPad Prism 7 software (San Diego, CA, USA).

[4] = C–ON bond homolysis in water/n-PrOH v/v 1:1, EPR, T (°C): A1L 95.1, A3L 94.5, A4L 94.6, A5L 94.0, A6L 94.8, A7L 94.3, A1D 93.5, A3D 92.6, A4D 95.0, A5D 94.6

Row | SMILES | time to kill all parasites [1] | time to reach the death of half of the population of worms [1] | Activity/toxicity towards schistosomes (in words) [1] | Homolysis rate constant kd [2, 4] | Activation energy Ea ([2]; in water/n-PrOH v/v 1:1) [kcal/mol] | CC50 [3] [µM] | Time to Kill 50% of Parasites [1] [h] | Time to Kill 100% of Parasites [1] [h] | Homolysis rate constant kd ([2]; C–ON bond homolysis in t-BuPh, EPR, T (°C): A1L 128.0, A3L 125.0, A5L 130.0, A6L 125, A7L 126.5, A1D 122.5, A3D 119.8, A5D 130) | Activation energy Ea ([2]; in t-BuPh) [kcal/mol]
1 | CC(ON1C(C)(C)CCCC1(C)C)c1ccc(NC(=O)[C@@H](Cc2ccccc2)NC(=O)[C@H](NC(=O)[C@H](N)Cc2ccccc2)C(C)C)cc1 (stereo partly drawn) [A4D, (2R)-1-(((2R)-3-methyl-1-oxo-1-(((2R)-1-oxo-3-phenyl-1-((4-(1-((2,2,6,6-tetramethylpiperidin-1-yl)oxy)ethyl)phenyl)amino)propan-2-yl)amino)butan-2-yl)amino)-1-oxo-3-phenylpropan-2-aminium trifluoroacetate] | 7 | 2 | toxic to schistosomes | 1.2 10^−4 s^−1 | 30.81 | 2.6 ± 0.3 | – | – | – | –
2 | CC(C)[C@H](NC(=O)[C@H](Cc1ccccc1)NC(=O)CCC(=O)OCc1ccccc1)C(=O)N[C@@H](Cc1ccccc1)C(=O)OCc1ccccc1 [P9L, Benzyl 4-(((S)-1-(((S)-1-(((S)-1-(benzyloxy)-1-oxo-3-phenylpropan-2-yl)amino)-3-methyl-1-oxobutan-2-yl)amino)-1-oxo-3-phenylpropan-2-yl)amino)-4-oxobutanoate] | 5 | 3 | unexpected toxicity | – | – | > 50 | 3 | 5 | – | –
3 | CCc1ccc(NC(=O)[C@@H](Cc2ccccc2)NC(=O)[C@H](NC(=O)[C@H](N)Cc2ccccc2)C(C)C)cc1 [P22D, (R)-1-(((R)-1-(((R)-1-((4-ethylphenyl)amino)-1-oxo-3-phenylpropan-2-yl)amino)-3-methyl-1-oxobutan-2-yl)amino)-1-oxo-3-phenylpropan-2-aminium trifluoroacetate] | 24 | 4 | unexpectedly toxic | – | – | 11 | – | – | – | –
4 | CC(C)[C@@H](NC(=O)[C@H](N)Cc1ccccc1)C(=O)N[C@H](Cc1ccccc1)C(=O)OCc1ccccc1 [P8D, (R)-1-(((R)-1-(((R)-1-(benzyloxy)-1-oxo-3-phenylpropan-2-yl)amino)-3-methyl-1-oxobutan-2-yl)amino)-1-oxo-3-phenylpropan-2-aminium trifluoroacetate] (H-[dF]-[dV]-[dF]-OBn) | 1 | 1 | unexpectedly toxic | – | – | > 50 | – | – | – | –
5 | CC(C)[C@H](NC(=O)[C@H](Cc1ccccc1)NC(=O)OC(C)(C)C)C(=O)N[C@@H](Cc1ccccc1)C(=O)OCc1ccccc1 [P6L, Benzyl (tert-butoxycarbonyl)-L-phenylalanyl-L-valyl-L-phenylalaninate] (Boc-Phe-Val-Phe-OBn) | – | – | – | – | – | > 50 | – | – | – | –
6 | CC(C)[C@H](NC(=O)[C@@H](N)Cc1ccccc1)C(=O)N[C@@H](Cc1ccccc1)C(=O)OCc1ccccc1 [P8L, (S)-1-(((S)-1-(((S)-1-(benzyloxy)-1-oxo-3-phenylpropan-2-yl)amino)-3-methyl-1-oxobutan-2-yl)amino)-1-oxo-3-phenylpropan-2-aminium trifluoroacetate] (H-Phe-Val-Phe-OBn) | 24 | 7 | unexpected toxicity | – | – | > 50 | 7 | 24 | – | –
7 | CCc1ccc(NC(=O)[C@@H](Cc2ccccc2)NC(=O)[C@H](NC(=O)[C@@H](Cc2ccccc2)NC(=O)OC(C)(C)C)C(C)C)cc1 [P21D, Tert-butyl ((R)-1-(((R)-1-(((R)-1-((4-ethylphenyl)amino)-1-oxo-3-phenylpropan-2-yl)amino)-3-methyl-1-oxobutan-2-yl)amino)-1-oxo-3-phenylpropan-2-yl)carbamate] | 24 | 5 | unexpectedly toxic | – | – | > 50 | – | – | – | –
8 | CC(ON1C(C)(C)CCCC1(C)C)c1ccc(NC(=O)[C@@H](Cc2ccccc2)NC(=O)[C@H](NC(=O)[C@@H](Cc2ccccc2)NC(=O)OC(C)(C)C)C(C)C)cc1 (stereo partly drawn) [A3D, tert-butyl ((2R)-1-(((2R)-3-methyl-1-oxo-1-(((2R)-1-oxo-3-phenyl-1-((4-(1-((2,2,6,6-tetramethylpiperidin-1-yl)oxy)ethyl)phenyl)amino)propan-2-yl)amino)butan-2-yl)amino)-1-oxo-3-phenylpropan-2-yl)carbamate] | – | – | – | 0.45 10^−4 s^−1 | 31.31 | > 50 | – | – | 9.6 10^−4 s^−1 | 31.6
9 | CC(C)[C@@H](NC(=O)[C@@H](Cc1ccccc1)NC(=O)OC(C)(C)C)C(=O)N[C@H](Cc1ccccc1)C(=O)OCc1ccccc1 [P6D, Benzyl (tert-butoxycarbonyl)-D-phenylalanyl-D-valyl-D-phenylalaninate] (Boc-[dF]-[dV]-[dF]-OBn) | 24 | 4 | unexpectedly toxic | – | – | 3.2 | – | – | – | –

From article PMC11206678, “Peptide-Alkoxyamine Drugs: An Innovative Approach to Fight Schistosomiasis: “Digging Their Graves with Their Forks”” (Pathogens, 2024)
